This experiment has as its target T1, GP IIb IIIa (Homo sapiens, UniProt P05106+P08514).
T1 construct: from tissue; host or cells: outdated human platelets
The experiment can be described thus: Fibrinogen-GP IIb IIIa Receptor ELISA Binding Assay (Fg/IIbIIIa). As to conditions: Example 29, Cmpd # 1-105; read-out: IC50 Fg/IIbI. How it is done: Briefly, microtiter plates are coated with fibrinogen (10 mg/ml) and then blocked with TACTS buffer containing 0.5% bovine serum albumin (BSA). […] After another wash a goat anti-mouse IgG conjugated to horseradish peroxidase is added. […] The reaction is stopped with 1N sulfuric acid and the absorbance at 492 nm is recorded. […] Outdated human platelets are washed 3 times with 10 mM tris-HCl, 150 mM NaCl (TBS), 1 mM EDTA, pH 7.5, and centrifuged at 2000×g to pellet cells. […] The supernatant fraction is collected and the supernatant is loaded onto a concanavalin-A column, previously equilibrated in TBS, 1 mM Ca2 Cl2, 0.1% Triton, 0.05% NaN3 and eluted with 0.2M a-methylmannoside. Fractions are pooled and loaded onto a heparin-agarose column. The flowthrough is collected and concentrated on an Amicon YM 30 filter to a volume of approximately 5-10 ml. The concentrate is then applied to an S-300 column (500 ml) and 6 ml fractions are collected. The GP IIb IIIa containing fractions are collected, pooled, and stored at -80° C. […] The precipitate is spun down in appropriate size bottles at 2000×g. The supernatant is decanted and the precipitate resuspended in 150 mM NaCl (approximately 50% of the original volume). […] The suspension is spun down and the precipitate is resuspended in Tris-saline in a minimal volume (approximately 5% of the original volume). Any remaining insoluble material is spun down at 2000 rpm in a Sorval type centrifuge and the fibrinogen supernatant is decanted and dialyzed overnight at 4° C. against Tris-saline. Characterization of the fibrinogen is by the Bradford protein assay, SDS-PAGE, and/or Western blotting using well known standard procedures. Briefly, 96 well plates are coated (Type Nunc 1 MaxisorpTM) with 10 mg/ml purified fibrinogen ([…]), and allowed to stand overnight at 4° C. […] The plates are again washed three times with PBS/Tween and then […] of sample in TNCNT is added. The mixture is incubated for 15 minutes at room temperature on a plate shaker. […] Fifty ml of this diluted GP IIb IIIa is then added to each well and incubated on a plate shaker at room temperature. After one hour, the plates are washed four times with PBS/Tween and 100 ml of a polyclonal or monoclonal antibody specific for GP IIIa such as AP3 (1 mg/ml) (See e.g. […] After a one hour incubation at room temperature on a plate shaker, the samples are washed 4 times with PBS/Tween. […] The color develops within about 3 to 20 minutes and the reaction is stopped with 100 ml 1M H2 SO4. The optical density at 492 nm vs 405 nm is recorded and IC50 values are determined.
A general note: In an ELISA, binding on a coated surface is turned into a signal by an enzyme label.

The results in this text go back to patent publication US5250679A, “Nonpeptidyl platelet aggregation inhibitors having specificity for the GPIIb III receptor” (Genentech, Inc., priority 1992, dated 1993).

Each structure is given as a SMILES string. Counter-ions that a name gives are not always drawn.

T1 sequence (P08514 32-887 limits assumed): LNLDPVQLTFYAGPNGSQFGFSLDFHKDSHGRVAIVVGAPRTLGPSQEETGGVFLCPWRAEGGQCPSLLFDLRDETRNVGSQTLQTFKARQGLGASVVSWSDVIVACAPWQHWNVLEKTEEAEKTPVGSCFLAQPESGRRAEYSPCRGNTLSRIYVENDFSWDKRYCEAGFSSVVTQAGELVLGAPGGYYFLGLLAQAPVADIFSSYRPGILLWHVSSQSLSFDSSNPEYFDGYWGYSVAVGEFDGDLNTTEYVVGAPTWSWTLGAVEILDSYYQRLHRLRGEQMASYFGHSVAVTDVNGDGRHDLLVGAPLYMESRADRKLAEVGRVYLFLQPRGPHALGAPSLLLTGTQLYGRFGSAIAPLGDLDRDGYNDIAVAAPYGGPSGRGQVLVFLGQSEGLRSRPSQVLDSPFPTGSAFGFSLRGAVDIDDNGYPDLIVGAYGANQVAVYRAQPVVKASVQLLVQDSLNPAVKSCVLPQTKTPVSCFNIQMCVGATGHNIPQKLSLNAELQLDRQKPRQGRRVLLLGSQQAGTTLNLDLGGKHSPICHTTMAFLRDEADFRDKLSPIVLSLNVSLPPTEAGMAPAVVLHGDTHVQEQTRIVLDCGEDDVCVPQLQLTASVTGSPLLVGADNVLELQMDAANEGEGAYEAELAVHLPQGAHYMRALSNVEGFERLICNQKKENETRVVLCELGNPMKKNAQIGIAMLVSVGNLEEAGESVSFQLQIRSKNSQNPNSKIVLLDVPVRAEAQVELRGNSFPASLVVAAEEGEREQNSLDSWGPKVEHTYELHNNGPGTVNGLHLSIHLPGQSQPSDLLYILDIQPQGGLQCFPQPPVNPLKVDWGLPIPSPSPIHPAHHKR
T1 sequence (P08514 891-1039 partner limits assumed): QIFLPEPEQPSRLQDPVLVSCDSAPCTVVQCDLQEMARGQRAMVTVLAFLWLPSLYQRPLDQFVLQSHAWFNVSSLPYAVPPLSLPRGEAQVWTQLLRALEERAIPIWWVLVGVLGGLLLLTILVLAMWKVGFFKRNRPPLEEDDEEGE
T1 sequence (P05106 27-788): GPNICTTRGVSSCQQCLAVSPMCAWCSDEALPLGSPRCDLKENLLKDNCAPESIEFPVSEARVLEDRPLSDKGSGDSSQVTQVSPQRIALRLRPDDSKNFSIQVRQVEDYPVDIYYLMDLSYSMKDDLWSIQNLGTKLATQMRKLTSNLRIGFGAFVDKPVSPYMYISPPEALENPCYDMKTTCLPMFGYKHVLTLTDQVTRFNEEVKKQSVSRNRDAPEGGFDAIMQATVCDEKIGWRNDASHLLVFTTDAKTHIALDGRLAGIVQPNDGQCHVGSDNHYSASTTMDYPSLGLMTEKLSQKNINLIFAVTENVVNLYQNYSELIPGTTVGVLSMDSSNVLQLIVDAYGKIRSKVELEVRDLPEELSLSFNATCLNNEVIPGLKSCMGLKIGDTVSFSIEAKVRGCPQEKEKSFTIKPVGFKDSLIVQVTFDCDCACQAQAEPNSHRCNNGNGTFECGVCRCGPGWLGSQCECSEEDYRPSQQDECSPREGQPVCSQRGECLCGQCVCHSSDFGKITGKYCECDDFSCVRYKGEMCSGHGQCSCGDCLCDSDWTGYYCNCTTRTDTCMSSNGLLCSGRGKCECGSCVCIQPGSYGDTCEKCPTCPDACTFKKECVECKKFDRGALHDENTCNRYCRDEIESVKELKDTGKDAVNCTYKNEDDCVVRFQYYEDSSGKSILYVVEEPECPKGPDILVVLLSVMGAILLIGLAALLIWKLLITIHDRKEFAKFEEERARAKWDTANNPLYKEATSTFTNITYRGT

On to `NCCCc1ccc2c(c1)C(=O)N(CCC(=O)O)CC(=O)N2` [Cmpd 1], for which the IC50 was 8.3 µM.

Regarding `CN1C(=O)CN(CCC(=O)O)C(=O)c2cc(CCCN)ccc21` [Cmpd 3], the IC50 turned out to be 28 µM. With `CN1C(=O)CN(CCC(=O)O)C(=O)c2cc(CCCNC(=N)N)ccc21` [Cmpd 4] the figure was 0.466 µM.

For the compound `CN1C(=O)CN(CCC(=O)O)C(=O)c2cc(C#CCN)ccc21` [Cmpd 5], the IC50 was determined as 7 µM. As to `CN1C(=O)CN(CCC(=O)O)C(=O)c2cc(C#CCNC(=N)N)ccc21` [Cmpd 6], the IC50 turned out to be 0.17 µM. With `CC1C(=O)N(C)c2ccc(CCCN)cc2C(=O)N1CCC(=O)O` (centres unmarked) [Cmpd 7] the figure was 30 µM; with `CC1C(=O)N(C)c2ccc(CCCNC(=N)N)cc2C(=O)N1CCC(=O)O` (centres unmarked) [Cmpd 8], more than 100 µM; with `CC1C(=O)N(C)c2ccc(C#CCN)cc2C(=O)N1CCC(=O)O` (centres unmarked) [Cmpd 9], 70 µM. With `CC1C(=O)N(C)c2ccc(C#CCNC(=N)N)cc2C(=O)N1CCC(=O)O` (centres unmarked) [Cmpd 10] the figure was 30 µM; with `CN1C(=O)C(c2ccccc2)N(CCC(=O)O)C(=O)c2cc(CCCN)ccc21` (centres unmarked) [Cmpd 11], 600 µM; with `CN1C(=O)C(c2ccccc2)N(CCC(=O)O)C(=O)c2cc(CCCNC(=N)N)ccc21` (centres unmarked) [Cmpd 12], 2.3 µM. Consider `CN1C(=O)C(c2ccccc2)N(CCC(=O)O)C(=O)c2cc(C#CCN)ccc21` (centres unmarked) [Cmpd 13], for which the IC50 is more than 1000 µM. With `CN1C(=O)C(c2ccccc2)N(CCC(=O)O)C(=O)c2cc(C#CCNC(=N)N)ccc21` (centres unmarked) [Cmpd 14] the figure was 25 µM; with `CN1C(=O)C2CCC(CC(=O)O)N2C(=O)c2cc(CCCN)ccc21` (centres unmarked) [Cmpd 15], more than 100 µM.

On to `CN1C(=O)C2CCC(CC(=O)O)N2C(=O)c2cc(CCCNC(=N)N)ccc21` (centres unmarked) [Cmpd 16], for which the IC50 was more than 100 µM. Turning to `CN1C(=O)C2CCC(CC(=O)O)N2C(=O)c2cc(CCCN)ccc21` (centres unmarked) [Cmpd 17], the IC50 is more than 100 µM. For the compound `CN1C(=O)C2CCC(CC(=O)O)N2C(=O)c2cc(CCCNC(=N)N)ccc21` (centres unmarked) [Cmpd 18], the IC50 was more than 100 µM.

On to `CN1C(=O)CN(CCC(=O)O)C(=O)c2cc(CCCCN)ccc21` [Cmpd 19], for which the IC50 was found to be 5 µM. With `CN1C(=O)CN(CCC(=O)O)C(=O)c2cc(C#CCCN)ccc21` [Cmpd 21] the figure was 6 µM. With `CC1C(=O)N(C)c2ccc(CCCCN)cc2C(=O)N1CCC(=O)O` (centres unmarked) [Cmpd 23], the IC50 is more than 100 µM. With `CC1C(=O)N(C)c2ccc(CCCCNC(=N)N)cc2C(=O)N1CCC(=O)O` (centres unmarked) [Cmpd 24], the IC50 is 100 µM.

On to `CC1C(=O)N(C)c2ccc(C#CCCN)cc2C(=O)N1CCC(=O)O` (centres unmarked) [Cmpd 25], for which the IC50 is more than 100 µM. On to `CC1C(=O)N(C)c2ccc(C#CCCNC(=N)N)cc2C(=O)N1CCC(=O)O` (centres unmarked) [Cmpd 26], for which the IC50 was found to be 80 µM.

With `NCCCCCc1ccc2c(c1)C(=O)N(CCC(=O)O)CC(=O)N2` [Cmpd 29], the IC50 was 2.92 µM. As for `N=C(N)NCCCCCc1ccc2c(c1)C(=O)N(CCC(=O)O)CC(=O)N2` [Cmpd 30], the IC50 stood at 0.204 µM. On to `NCCCC#Cc1ccc2c(c1)C(=O)N(CCC(=O)O)CC(=O)N2` [Cmpd 31], for which the IC50 turned out to be 1.43 µM. With `N=C(N)NCCCC#Cc1ccc2c(c1)C(=O)N(CCC(=O)O)CC(=O)N2` [Cmpd 32] the figure was 0.254 µM.

For `CC(CC(=O)O)N1CC(=O)N(C)c2ccc(C#CCCCN)cc2C1=O` (centres unmarked) [Cmpd 37, 1-methyl-4-(2-carboxy-1-methylethyl)-7-(5-amino-1-pentyne)-3,4-dihydro-1H-1,4-benzodiazepine-2,5-dione trifluroacetate], the IC50 came out at 0.061 µM. Regarding `CN1C(=O)CN(CCC(=O)O)C(=O)c2cc(CCCCCCN)ccc21` [Cmpd 39], the IC50 came out at 0.07 µM. On to `CN1C(=O)CN(CCC(=O)O)C(=O)c2cc(CCCCCCNC(=N)N)ccc21` [Cmpd 40], for which the IC50 stood at 0.12 µM.

As to `CN1C(=O)CN(CCC(=O)O)C(=O)c2cc(C#CCCCCN)ccc21` [Cmpd 41, 1-(methyl)-4-(2-carboxyethyl)-7-(6-amino-1-hexynyl)-3,4-dihydro-1H-1,4-benzodiazepine-2,5-dione trifluroacetate], the IC50 came out at 0.1 µM. As for `CN1C(=O)CN(CCC(=O)O)C(=O)c2cc(CCc3ccc(CN)cc3)ccc21` [Cmpd 45], the IC50 is 0.085 µM. With `CN1C(=O)CN(CCC(=O)O)C(=O)c2cc(CCc3ccc(CNC(=N)N)cc3)ccc21` [Cmpd 46] the figure was 0.265 µM; with `CN1C(=O)CN(CCC(=O)O)C(=O)c2cc(CCc3cccc(N)c3)ccc21` [Cmpd 47], 10 µM; with `CN1C(=O)CN(CCC(=O)O)C(=O)c2cc(C#Cc3cccc(N)c3)ccc21` [Cmpd 49], 6 µM. With `CN1C(=O)CN(C(CC(=O)O)c2ccccc2)C(=O)c2cc(CCCCCCN)ccc21` (centres unmarked) [Cmpd 51] the figure was 0.2 µM; with `CN1C(=O)CN(C(CC(=O)O)c2ccccc2)C(=O)c2cc(CCCCCCNC(=N)N)ccc21` (centres unmarked) [Cmpd 52], 0.39 µM; with `CN1C(=O)CN(C(CC(=O)O)c2ccccc2)C(=O)c2cc(C#CCCCCN)ccc21` (centres unmarked) [Cmpd 53], 0.24 µM. For `CN1C(=O)CN(C(CC(=O)O)c2ccccc2)C(=O)c2cc(C#CCCCCNC(=N)N)ccc21` (centres unmarked) [Cmpd 54], the IC50 was 0.1 µM. `CN1C(=O)CN(CCC(=O)O)C(=O)c2cc(C#Cc3ccc(C#N)cc3)ccc21` [Cmpd 57]: the IC50 was found to be 30 µM. With `NCCCC#Cc1ccc2c(c1)C(=O)N(CCC(=O)O)CC(=O)N2Cc1ccc(Cl)cc1` [Cmpd 58] the figure was 0.062 µM; with `N=C(N)NCCCC#Cc1ccc2c(c1)C(=O)N(CCC(=O)O)CC(=O)N2Cc1ccc(Cl)cc1` [Cmpd 59], 0.009 µM; with `N=C(N)NCCCCC#Cc1ccc2c(c1)C(=O)N(CCC(=O)O)CC(=O)N2Cc1ccc(Cl)cc1` [Cmpd 61], 0.043 µM. With `NCCCCCc1ccc2c(c1)C(=O)N(CCC(=O)O)CC(=O)N2Cc1ccc(Cl)cc1` [Cmpd 62] the figure was 0.176 µM. Take `N=C(N)NCCCCCCc1ccc2c(c1)C(=O)N(CCC(=O)O)CC(=O)N2Cc1ccc(Cl)cc1` [Cmpd 65]: the IC50 came to 0.05 µM.

For `N=C(N)NCCCCCCCc1ccc2c(c1)C(=O)N(CCC(=O)O)CC(=O)N2Cc1ccc(Cl)cc1` [Cmpd 67], the IC50 worked out at 0.2 µM. Consider `COc1ccc(CN2C(=O)CN(CCC(=O)O)C(=O)c3cc(CCCCCNC(=N)N)ccc32)cc1` [Cmpd 79, 1-(p-methoxybenzyl)-4-(2-carboxyethyl)-7-(5-guanidinopentyl)-3,4-dihydro-1H-1,4-benzodiazepine-2,5-dione trifluoroacetate], for which the IC50 came to 0.011 µM. Take `COc1ccc(CN2C(=O)CN(CCC(=O)O)C(=O)c3cc(CCCCCN)ccc32)cc1` [Cmpd 80, 1-(p-methoxybenzyl)-4-(2-carboxyethyl)-7-(5-aminopentyl)-3,4-dihydro-1H-1,4-benzodiazepine-2,5-dione trifluoroacetate]: the IC50 stood at 0.16 µM. `N=C(N)NCCCCCCc1ccc2c(c1)C(=O)N(CCC(=O)O)CC(=O)N2Cc1ccc2ccccc2c1` [Cmpd 86, 1-(2-napthyl)methyl-4-(2-carboxyethyl)-7-(6-guanidinohexyl)-3,4-dihydro-1H-1,4-benzodiazepine-2,5-dione trifluoroacetate]: the IC50 was 0.055 µM. Take `NCCCCC#Cc1ccc2c(c1)C(=O)N(CCC(=O)O)CC(=O)N2Cc1ccc([N+](=O)[O-])cc1` [Cmpd 87]: the IC50 turned out to be 0.031 µM.

Regarding `N=C(N)NCCCCC#Cc1ccc2c(c1)C(=O)N(CCC(=O)O)CC(=O)N2Cc1ccc([N+](=O)[O-])cc1` [Cmpd 88], the IC50 worked out at 0.031 µM. With `N=C(N)NCCCCCCc1ccc2c(c1)C(=O)N(CCC(=O)O)CC(=O)N2Cc1ccc(C(F)(F)F)cc1` [Cmpd 89, 1-(p-trifluoromethylbenzyl)-4-(2-carboxyethyl)-7-(6-guanidinohexyl)-3,4-dihydro-1H-1,4-benzodiazepine-2,5-dione trifluoroacetate] the figure was 0.047 µM; with `NCCCCCCc1ccc2c(c1)C(=O)N(CCC(=O)O)CC(=O)N2Cc1ccc(C(F)(F)F)cc1` [Cmpd 90, 1-(p-trifluoromethylbenzyl)-4-(2-carboxyethyl)-7-(6-aminohexyl)-3,4-dihydro-1H-1,4-benzodiazepine-2,5-dione trifluoroacetate], 0.005 µM.
